Measurements published in patent US9216173B2, “2-Pyridyl carboxamide-containing spleen tyrosine kinase (SYK) inhibitors” (Merck Sharp & Dohme Corp., priority 2011, dated 2015).

Target: T1, recombinant human GST-SYK (Homo sapiens, UniProt P43405)
T1 construct: purchased Carna Biosciences 08-176
Assay: Homogeneous Time-Resolved Fluorescence (HTRF) assay for the recombinant human Syk enzyme
Format: biochemical
Conditions: GST-hSYK 5 pM, ATP 25 μM, 10-dose titration 10 μM to 0.508 nM; read-out: rhSYK Activity (IC50 rating)
How it was run: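 GST-hSYK fusion phosphorylates a peptide for 45 min at room temperature. Quenched with EDTA buffer containing 2 nM Eu-anti-phosphotyrosine antibody and 70 nM SA-APC. HTRF signal read after 30 min.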

| Structure (SMILES) | IC50 [nM] |
| --- | --- |
| NC(=O)c1ncc(N[C@@H]2CCCC[C@@H]2N)cc1Nc1ccnc(C2CC2)n1 [Example 1.129, 5-{[(1R,2S)-2-aminocyclohexyl]amino}-3-[(2-cyclopropylpyrimidin-4-yl)amino]pyridine-2-carboxamide] | < 10 |
| Cc1nc(Nc2cc(N[C@@H]3CCCC[C@@H]3N)cnc2C(N)=O)ccc1-c1ccc2nnn(C)c2c1 [Example 3.9, 5-{[(1R,2S)-2-aminocyclohexyl]amino}-3-{[6-methyl-5-(1-methyl-1H-benzotriazol-6-yl)pyridin-2-yl]amino}pyridine-2-carboxamide] | < 10 |
| Cc1nc(Nc2cc(N[C@@H]3CCCC[C@@H]3N)cnc2C(N)=O)ccc1C(N)=O [Example 7, 5-{[(1R,2S)-2-aminocyclohexyl]amino}-3-[(5-carbamoyl-6-methylpyridin-2-yl)amino]pyridine-2-carboxamide] | < 10 |
| Cc1nc(Nc2cc(N[C@@H]3CCCC[C@@H]3N)cnc2C(N)=O)ccc1-c1ccc2c(cnn2C)c1 [Example 3.18, 5-{[(1R,2S)-2-aminocyclohexyl]amino}-3-{[6-methyl-5-(1-methyl-1H-indazol-5-yl)pyridin-2-yl]amino}pyridine-2-carboxamide] | < 10 |
| CN1CCN(Cc2cccc(Nc3cc(N[C@@H]4CCCC[C@@H]4N)cnc3C(N)=O)n2)CC1 [Example 1.61, 5-{[(1R,2S)-2-aminocyclohexyl]amino}-3-({6-[(4-methylpiperazin-1-yl)methyl]pyridin-2-yl}amino)pyridine-2-carboxamide] | 100 to 1000 |
| Cc1cc(C)n2nc(Nc3cc(N[C@@H]4CCCC[C@@H]4N)cnc3C(N)=O)cc2n1 [Example 1.55, 5-{[(1R,2S)-2-aminocyclohexyl]amino}-3-[(5,7-dimethylpyrazolo[1,5-a]pyrimidin-2-yl)amino]pyridine-2-carboxamide] | < 10 |
| Cc1nc(Nc2cc(NC[C@H](C)N)cnc2C(N)=O)ccc1Br [Example 2.2, 5-{[(2S)-2-aminopropyl]amino}-3-[(5-bromo-6-methylpyridin-2-yl)amino]pyridine-2-carboxamide] | < 10 |
| CCc1cccc(Nc2cc(NC(CC)CN)cnc2C(N)=O)n1 (stereo not drawn) [Example 1.97, 5-{[1-(aminomethyl)propyl]amino}-3-[(6-ethylpyridin-2-yl)amino]pyridine-2-carboxamide] | < 10 |
| Cc1cccc(Nc2cc(N[C@@H]3CCCC[C@@H]3N)cnc2C(N)=O)n1 [Example 1.7, 5-{[(1R,2S)-2-aminocyclohexyl]amino}-3-[(6-methylpyridin-2-yl)amino]pyridine-2-carboxamide] | < 10 |
| Cc1nc(Nc2cc(N[C@@H]3CCCC[C@@H]3N)cnc2C(N)=O)ccc1-c1ccc(-n2nccn2)cc1 [Example 3.15, 5-{[(1R,2S)-2-aminocyclohexyl]amino}-3-({6-methyl-5-[4-(2H-1,2,3-triazol-2-yl)phenyl]pyridin-2-yl}amino)pyridine-2-carboxamide] | < 10 |
| CCOCC(N)CNc1cnc(C(N)=O)c(Nc2cc(C)cc(C)n2)c1 (stereo not drawn) [Example 1.70, 5-[(2-amino-3-ethoxypropyl)amino]-3-[(4,6-dimethylpyridin-2-yl)amino]pyridine-2-carboxamide] | < 10 |
| Cc1cc(-c2ccnn2C)cc(Nc2cc(N[C@@H]3CCCC[C@@H]3N)cnc2C(N)=O)n1 [Example 4.4, 5-{[(1R,2S)-2-aminocyclohexyl]amino}-3-{[6-methyl-4-(1-methyl-1H-pyrazol-5-yl)pyridin-2-yl]amino}pyridine-2-carboxamide] | < 10 |
| NC(=O)c1ncc(NCC2(N)CC2)cc1Nc1cccc(C(F)(F)F)n1 [Example 1.103, 5-{[(1-aminocyclopropyl)methyl]amino}-3-{[6-(trifluoromethyl)pyridin-2-yl]amino}pyridine-2-carboxamide] | < 10 |
| NC(=O)c1ncc(N[C@@H]2CCCC[C@@H]2N)cc1Nc1cccc(CN2CCNCC2)n1 [Example 8, 5-{[(1R,2S)-2-aminocyclohexyl]amino}-3-{[6-(piperazin-1-ylmethyl)pyridin-2-yl]amino}pyridine-2-carboxamide] | 100 to 1000 |
| COc1ccc(-n2ccc(Nc3cc(N[C@@H]4CCCC[C@@H]4N)cnc3C(N)=O)n2)cc1 [Example 1.72, 5-{[(1R,2S)-2-aminocyclohexyl]amino}-3-{[1-(4-methoxyphenyl)-1H-pyrazol-3-yl]amino}pyridine-2-carboxamide] | < 10 |
| Cc1cc(Cl)nc(Nc2cc(N[C@@H]3CCCC[C@@H]3N)cnc2C(N)=O)c1 [Example 1.38, 5-{[(1R,2S)-2-aminocyclohexyl]amino}-3-[(6-chloro-4-methylpyridin-2-yl)amino]pyridine-2-carboxamide] | < 10 |
| Cc1ccc(-n2nc(Nc3cc(N[C@@H]4CCCC[C@@H]4N)cnc3C(N)=O)cc2C)cc1 [Example 1.79, 5-{[(1R,2S)-2-aminocyclohexyl]amino}-3-{[5-methyl-1-(4-methylphenyl)-1H-pyrazol-3-yl]amino}pyridine-2-carboxamide] | < 10 |
| Cc1cc(Cl)cc(Nc2cc(N[C@@H]3CCCC[C@@H]3N)cnc2C(N)=O)n1 [Example 1.12, 5-{[(1R,2S)-2-aminocyclohexyl]amino}-3-[(4-chloro-6-methylpyridin-2-yl)amino]pyridine-2-carboxamide] | < 10 |
| Cc1nc(Nc2cc(N[C@@H]3CCCC[C@@H]3N)cnc2C(N)=O)ccc1-c1cccc2c1CNC2=O [Example 3.12, 5-{[(1R,2S)-2-aminocyclohexyl]amino}-3-{[6-methyl-5-(1-oxo-2,3-dihydro-1H-isoindol-4-yl)pyridin-2-yl]amino}pyridine-2-carboxamide] | < 10 |
| Cc1cc(Nc2cc(N[C@@H]3CCCC[C@@H]3N)cnc2C(N)=O)nc(-c2cnn3c2CCC3)c1 [Example 1.115, 5-{[(1R,2S)-2-aminocyclohexyl]amino}-3-{[6-(5,6-dihydro-4H-pyrrolo[1,2-b]pyrazol-3-yl)-4-methylpyridin-2-yl]amino}pyridine-2-carboxamide] | < 10 |
| COc1ccc(-c2ccc(Nc3cc(N[C@@H]4CCCC[C@@H]4N)cnc3C(N)=O)nc2C)cn1 [Example 3.22, 5-{[(1R,2S)-2-aminocyclohexyl]amino}-3-[(6′-methoxy-2-methyl-3,3′-bipyridin-6-yl)amino]pyridine-2-carboxamide] | < 10 |
| Cc1nc(Nc2cc(N[C@@H]3CCCC[C@@H]3N)cnc2C(N)=O)ccc1-c1ccc(-c2nccn2C)cc1 [Example 3.29, 5-{[(1R,2S)-2-aminocyclohexyl]amino}-3-({6-methyl-5-[4-(1-methyl-1H-imidazol-2-yl)phenyl]pyridin-2-yl}amino)pyridine-2-carboxamide] | < 10 |
| Cc1cc(-c2ccccc2)cc(Nc2cc(N[C@@H]3CCCC[C@@H]3N)cnc2C(N)=O)n1 [Example 4.1, 5-{[(1R,2S)-2-aminocyclohexyl]amino}-3-[(6-methyl-4-phenylpyridin-2-yl)amino]pyridine-2-carboxamide] | < 10 |
| Cc1cc(C)nc(Nc2cc(N[C@@H]3CCC[C@@H]3N)cnc2C(N)=O)c1 (relative stereo) [Example 1.18, rel-5-{[(1R,2S)-2-aminocyclopentyl]amino}-3-[(4,6-dimethylpyridin-2-yl)amino]pyridine-2-carboxamide] | < 10 |
